In US20080058330A1, “Compounds and Combinations Thereof for Inhibiting Beta-Amyloid Production and Methods of Use Thereof” (Roskamp Research LLC, priority 2006, published 2008):
Blank lines part the entries; values can stand above or below the compound they belong to.

Key:
7W WT APP751 CHO cells = test: Measurement of Aβ1-40 and Aβ1-42 by ELISA after treatment with calcium channel blockers (Example 1); type: cell-based, Chinese hamster
Description: Chinese hamster ovary (CHO) cells, stably transfected with human APP751 (7W WT APP751 CHO cells) were used. See, e.g., Koo and Squazzo, J. Biol. Chem., Vol. 269, Issue 26, 17386-17389, July, 1994. The cells were maintained in DMEM medium supplemented with 10% fetal bovine serum and IX mixture of penicillin/streptomycin/fungizone/glutamine mixture (Cambrex, Md.) geneticin as selecting agent in 75 cm^2 cell culture flasks.
The 7W WT APP751 CHO cells were plated in 24-well cell culture plates in quadruplicate, containing 1 ml of culture medium, and treated with various calcium channel blocker compounds for 4 hours, 24 hours or 48 hours at 37° C. and 5% CO2. […] The culture medium was collected and diluted 5-fold for the 4 hours assay and 50-fold for the 24 hour assay before being assayed by ELISAs for Aβ1-40 and Aβ1-42, respectively. Concentrations of Aβ1-40 and Aβ1-42, expressed in pg/ml, were determined using commercially available ELISAs (Biosource, Calif.) in a colorimetric assay using labeled antibodies detected spectrophotometrically.

[1] = 30 μM, cells plated at low density, 24 hours (FIG. 1C)
[2] = 30 μM, cells plated at low density, 48 hours (FIG. 1D)

SMILES: CC1=C(C(=O)OC(C)(C)C)C(c2cccc(F)c2F)C(C(=O)OC(C)(C)C)=C(C)N1 [Example 39, Di-tert-butyl 4-(2,3-difluorophenyl)-1,4-dihydro-2,6-dimethylpyridine-3,5-dicarboxylate]
melting point: 192 to 194 °C

SMILES: C=CCOC(=O)C1=C(C)NC(C)=C(C(=O)OCC=C)C1c1ccc(Br)cc1 [Example 40, Diallyl 4-(4-bromophenyl)-1,4-dihydro-2,6-dimethylpyridine-3,5-dicarboxylate]
melting point: 130 to 131 °C

SMILES: CC1=C(C(=O)OC(C)(C)C)C(c2ccc(F)c(Br)c2)C(C(=O)OC(C)(C)C)=C(C)N1 [Example 42, Di-tert-butyl 4-(3-bromo-4-fluorophenyl)-1,4-dihydro-2,6-dimethylpyridine-3,5-dicarboxylate]
melting point: 171 to 172 °C

SMILES: COCCOC(=O)C1=C(C)NC(C)=C(C(=O)OCCOC)C1c1ccc(Br)cc1 [Example 46, Bis(2-methoxyethyl) 4-(4-bromophenyl)-1,4-dihydro-2,6-dimethylpyridine-3,5-dicarboxylate]
melting point: 116 to 117 °C

SMILES: CC1=C(C(=O)OC(C)(C)C)C(c2cccc(F)c2)C(C(=O)OC(C)(C)C)=C(C)N1 [Example 50, Di-tert-butyl 4-(3-fluorophenyl)-1,4-dihydro-2,6-dimethylpyridine-3,5-dicarboxylate]
melting point: 178 to 179 °C

SMILES: CC1=C(C(=O)OC(C)(C)C)C(c2ccc(F)cc2)C(C(=O)OC(C)(C)C)=C(C)N1 [Example 52, Di-tert-butyl 4-(4-fluorophenyl)-1,4-dihydro-2,6-dimethylpyridine-3,5-dicarboxylate]
melting point: 149 to 150 °C

SMILES: COCC1=C(C(=O)OC)C(c2ccc(Br)cc2)C(C(=O)OC)=C(COC)N1 [Example 53, Dimethyl 4-(4-bromophenyl)-1,4-dihydro-2,6-bis(methoxymethyl)pyridine-3,5-dicarboxylate]
melting point: 162 to 163 °C

SMILES: CCOC(=O)C1=C(C)N(Cc2ccccc2)C(C)=C(C(=O)OCC)C1c1ccc(Br)cc1 [Example 54, Diethyl 1-benzyl-4-(4-bromophenyl)-1,4-dihydro-2,6-dimethylpyridine-3,5-dicarboxylate]
melting point: 168 to 169 °C

SMILES: CC1=C(C(=O)OC(C)(C)C)C(c2ccc(C)cc2C)C(C(=O)OC(C)(C)C)=C(C)N1 [Example 55, Di-tert-butyl 1,4-dihydro-2,6-dimethyl-4-(2,4-dimethylphenyl)pyridine-3,5-dicarboxylate]
melting point: 197 to 198 °C

SMILES: COC(=O)C1=C(C)NC(C)=C(C(C)=O)C1c1ccccc1Cl (centres unmarked) [Example 57, Methyl 5-acetyl-4-(2-chlorophenyl)-1,4-dihydro-2,6-dimethylpyridine-3-carboxylate]
melting point: 183 to 184 °C

SMILES: COC(=O)C1=C(C)NC(C)=C(C(C)=O)C1c1ccccc1Br (centres unmarked) [Example 59, Methyl 5-acetyl-4-(2-bromophenyl)-1,4-dihydro-2,6-dimethylpyridine-3-carboxylate]
melting point: 146 to 148 °C

SMILES: Clc1ccc(C(c2ccc(Cl)cc2)[n+]2ccn(CC(OCc3ccc(Cl)cc3Cl)c3ccc(Cl)cc3Cl)c2)cc1.[Cl-] (centres unmarked) [Example R24571, 1-[bis(p-chlorophenyl)methyl]-3-[2-(2,4-di-chloro-p-(2,4-dichlorobenzyl-oxy)phenethyl)]-imidazolium chloride]
concentration of Aβ1-40 compared to controls (7W WT APP751 CHO cells; 5 μM (FIG. 4)): significantly decreased | concentration of total β-amyloid compared to controls (7W WT APP751 CHO cells; 5 μM (FIG. 4)): significantly decreased

SMILES: C#CCN1C(C)=C(C(=O)OC)C(c2cccc([N+](=O)[O-])c2)C(C(=O)OCC)=C1C (centres unmarked) [MRS 1845, N-propargylnitrendipine]
concentration of Aβ1-40 compared to controls (7W WT APP751 CHO cells; 30 μM (FIG. 3)): significantly decreased | concentration of total β-amyloid compared to controls (7W WT APP751 CHO cells; 30 μM (FIG. 3)): significantly decreased

SMILES: COc1ccc(CCCOC(Cn2ccnc2)c2ccc(OC)cc2)cc1.Cl (stereo not drawn) [SKF 96365, 1-[beta-[3-(4-methoxyphenyl)propoxy]-4-methoxyphenethyl]-1H-imidazole hydrochloride]
concentration of Aβ1-40 compared to controls (7W WT APP751 CHO cells; 15 μM, 24 hours (FIG. 1B)): significantly decreased | concentration of Aβ1-40 compared to controls (7W WT APP751 CHO cells; 30 μM (FIG. 2)): significantly decreased | concentration of Aβ1-42 compared to controls (7W WT APP751 CHO cells; 30 μM (FIG. 2)): significantly decreased | concentration of total β-amyloid compared to controls (7W WT APP751 CHO cells; 30 μM (FIG. 2)): significantly decreased | concentration of Aβ1-40 compared to controls (7W WT APP751 CHO cells; 30 μM, 24 hours (FIG. 1B)): significantly decreased

SMILES: Clc1ccccc1C(c1ccccc1)(c1ccccc1)n1ccnc1 [clotrimazole]
concentration of Aβ1-40 compared to controls (7W WT APP751 CHO cells; 20 μM (FIG. 4)): significantly decreased | concentration of total β-amyloid compared to controls (7W WT APP751 CHO cells; 20 μM (FIG. 4)): significantly decreased

SMILES: CN(C)C(=O)C(CCN1CCC(O)(c2ccc(Cl)cc2)CC1)(c1ccccc1)c1ccccc1 [loperamide]
concentration of Aβ1-40 compared to controls (7W WT APP751 CHO cells; 30 μM (FIG. 4)): significantly decreased | concentration of Aβ1-42 compared to controls (7W WT APP751 CHO cells; 30 μM (FIG. 4)): significantly decreased | concentration of total β-amyloid compared to controls (7W WT APP751 CHO cells; 30 μM (FIG. 4)): significantly decreased

SMILES: COC(=O)C1=C(C#N)NC(C)=C(C(=O)OC(C)C)C1c1cccc([N+](=O)[O-])c1 (centres unmarked) [nilvadipine]
concentration of Aβ1-40 compared to controls (7W WT APP751 CHO cells; 30 μM (FIG. 3)): significantly decreased | concentration of total β-amyloid compared to controls (7W WT APP751 CHO cells; 30 μM (FIG. 3)): significantly decreased | concentration of Aβ1-40 compared to controls (7W WT APP751 CHO cells; 30 μM, 24 hours (FIG. 1B)): significantly decreased | concentration of Aβ1-40 compared to controls (7W WT APP751 CHO cells; [1]): significantly decreased | concentration of Aβ1-40 compared to controls (7W WT APP751 CHO cells; [2]): significantly decreased

SMILES: CCOC(=O)C1=C(C)NC(C)=C(C(=O)OC)C1c1cccc([N+](=O)[O-])c1 (centres unmarked) [nitrendipine]
concentration of Aβ1-40 compared to controls (7W WT APP751 CHO cells; 30 μM (FIG. 3)): significantly decreased | concentration of total β-amyloid compared to controls (7W WT APP751 CHO cells; 30 μM (FIG. 3)): significantly decreased | concentration of Aβ1-40 compared to controls (7W WT APP751 CHO cells; [1]): significantly decreased | concentration of Aβ1-40 compared to controls (7W WT APP751 CHO cells; [2]): significantly decreased

SMILES: COc1ccc2cc1Oc1ccc(cc1)C[C@H]1c3cc(c(OC)cc3CCN1C)Oc1c(OC)c(OC)cc3c1[C@H](C2)N(C)CC3 [tetrandine, tetrandrine]
concentration of Aβ1-40 compared to controls (7W WT APP751 CHO cells; 5 μM (FIG. 4)): significantly decreased | concentration of total β-amyloid compared to controls (7W WT APP751 CHO cells; 5 μM (FIG. 4)): significantly decreased | concentration of Aβ1-40 compared to controls (7W WT APP751 CHO cells; 10 μM (FIG. 4)): significantly decreased | concentration of total β-amyloid compared to controls (7W WT APP751 CHO cells; 10 μM (FIG. 4)): significantly decreased | concentration of Aβ1-40 compared to controls (7W WT APP751 CHO cells; 20 μM (FIG. 4)): significantly decreased | concentration of total β-amyloid compared to controls (7W WT APP751 CHO cells; 20 μM (FIG. 4)): significantly decreased | concentration of Aβ1-40 compared to controls (7W WT APP751 CHO cells; 30 μM (FIG. 4)): significantly decreased | concentration of total β-amyloid compared to controls (7W WT APP751 CHO cells; 30 μM (FIG. 4)): significantly decreased

The next lines start with the values.

melting point: 102 to 104 °C
SMILES: CCOC(=O)C1=C(C)NC(C)=C(C(=O)OCC)C1c1cc(Cl)cc(Cl)c1 [Example 37, Diethyl 4-(3,5-dichlorophenyl)-1,4-dihydro-2,6-dimethylpyridine-3,5-dicarboxylate]

melting point: 161 to 162 °C
SMILES: CCOC(=O)C1=C(C)NC(C)=C(C(=O)OCC)C1c1cccc(F)c1F [Example 38, Diethyl 4-(2,3-difluorophenyl)-1,4-dihydro-2,6-dimethylpyridine-3,5-dicarboxylate]

melting point: 118 to 119 °C
SMILES: CCOC(=O)C1=C(C)NC(C)=C(C(=O)OCC)C1c1ccc(F)c(Br)c1 [Example 41, Diethyl 4-(3-bromo-4-fluorophenyl)-1,4-dihydro-2,6-dimethylpyridine-3,5-dicarboxylate]

melting point: 154 to 155 °C
SMILES: CCOC(=O)C1=C(C)NC(C)=C(C(=O)OCC)C1c1ccc(Br)cc1F [Example 43, Diethyl 4-(4-bromo-2-fluorophenyl)-1,4-dihydro-2,6-dimethylpyridine-3,5-dicarboxylate]

melting point: 187 to 188 °C
SMILES: CC1=C(C(=O)OC(C)(C)C)C(c2ccc(Br)cc2F)C(C(=O)OC(C)(C)C)=C(C)N1 [Example 44, Di-tert-butyl 4-(4-bromo-2-fluorophenyl)-1,4-dihydro-2,6-dimethylpyridine-3,5-dicarboxylate]

melting point: 124.5 to 125.5 °C
SMILES: COCCOC(=O)C1=C(C)NC(C)=C(C(=O)OCCOC)C1c1cccc(Br)c1 [Example 45, Bis(2-methoxyethyl) 4-(3-bromophenyl)-1,4-dihydro-2,6-dimethylpyridine-3,5-dicarboxylate]

melting point: 118 to 119 °C
SMILES: CCOC(=O)C1=C(C)NC(C)=C(C(=O)OCC)C1c1cc(Br)ccc1F [Example 47, Diethyl 4-(5-bromo-2-fluorophenyl)-1,4-dihydro-2,6-dimethylpyridine-3,5-dicarboxylate]

melting point: 173 to 174 °C
SMILES: CC1=C(C(=O)OC(C)(C)C)C(c2cc(Br)ccc2F)C(C(=O)OC(C)(C)C)=C(C)N1 [Example 48, Di-tert-butyl 4-(5-bromo-2-fluorophenyl)-1,4-dihydro-2,6-dimethylpyridine-3,5-dicarboxylate]

melting point: 150 to 151 °C
SMILES: CCOC(=O)C1=C(C)NC(C)=C(C(=O)OCC)C1c1ccc(F)cc1 [Example 51, Diethyl 4-(4-fluorophenyl)-1,4-dihydro-2,6-dimethylpyridine-3,5-dicarboxylate]

melting point: 125 to 127 °C
SMILES: CCOC(=O)C1=C(C)NC(C)=C(C(=O)OC)C1c1ccccc1Cl (centres unmarked) [Example 56, 3-Ethyl 5-methyl 4-(2-chlorophenyl)-1,4-dihydro-2,6-dimethylpyridine-3,5-dicarboxylate]

melting point: 134.5 to 135.5 °C
SMILES: CCOC(=O)C1=C(C)NC(C)=C(C(=O)OC)C1c1ccccc1Br (centres unmarked) [Example 58, 3-Ethyl 5-methyl 4-(2-bromophenyl)-I14-dihydro-2,6-dimethylpyridine-3,5-dicarboxylate]
